Consider four compounds from US20060263781A1, “Regulation of cell surface proteins” (priority 2003, published 2006).

Data set [1] relates to CFTR. In words: Enzyme linked surface CFTR assay in T84 cell monolayers. The class given is cell-based, human. To be noted: for CFTR surface expression, absorbance at 655 nm normalised to the control group: forskolin stimulated T84 cell monolayers, 33 μM nocodazole for 3 hours, mean±SD; for CFTR surface expression, absorbance at 655 nm normalised to the nonsense treated group: 2 μM oligonucleotide for 24 hours, mean±1 SD. Here is the method:
T84 cell monolayers cultured on collagen coated glass coverslips were incubated in either chloride buffer with 10 μM forskolin or chloride buffer only for 30 minutes at 37° C. in 5% CO2 then fixed with 4% paraformaldehyde for 20 minutes at 4° C. The T84 cell monolayers were incubated for 1 hour firstly with CFTR (MA1-935) antibody (Walker et al., 1995) diluted 1:500 followed by HRP anti-mouse IgG diluted 1:1000. T84 cell monolayers were blocked prior to each incubation for 10 minutes in PBS containing 10% FBS and washed following each incubation 4 times in PBS. The coverslips were then placed into a clean 24 well plate and incubated for 30 minutes with 500 μl of 3′3′5′5′ Tetra methyl benzidine. The supernatant from each well was transferred to a cuvette and absorbance determined at 655 nm in a Beckman DU650 spectrophotometer. Absorbance was also determined at 655 nm for primary antibody negative controls and that amount was subtracted from the absorbance in primary antibody positive monolayers to determine their assay result.
The CFTR surface expression is reported as the absorbance measured at 655 nm, normalised to the mean absorbance for the control group within individual experiments. To determine the effects of treatment, normalised absorbance at 655 nm was compared between groups. Two group comparisons were made using the Student t test.
(§1) Cultured T84 colon cancer cell monolayers grown in collagen coated 24 well plates or on plastic coverslips were used as a model of the gastrointestinal epithelium. Incubation of monolayers inoculated with EPEC ([…]) for 6-9 hours was used to model EPEC infection and was compared with HB101, a non-pathogenic control. Antisense oligonucleotides were used to reduce tropomyosin 5a and 5b expression. An immuno-colourimetric assay was used to assess CFTR surface expression and intra-cellular MQAE fluorescence was used to assess chloride efflux.

Data set [2] deals with T84 cell monolayers. Kind of data set: MQAE chloride efflux assay. The note with it: for cumulative chloride efflux at 15 minutes, percentage increase in fluorescence normalised to the control group: nocodazole 33 μM for 3 hours, mean±SD; for cumulative chloride efflux at 15 minutes, percentage increase in fluorescence normalised to the nonsense group: 2 μM oligonucleotide 24 hours, 10 μM forskolin, mean±1 SD. It counts as cell-based, human. Here is the method:
T84 cell monolayers, cultured on 24 or 96 well plates were incubated in medium containing 10 mM MQAE for 16 hours. The monolayers were then washed 3 times in chloride buffer (2.4 mM Na2HPO4, 0.6 mM NaH2PO4, 1 mM K2SO4, 1 mM MgSO4, 3.4 mM KCl, 124.6 mM NaCl, 1 mM CaCl2, 10 mM glucose and 10 mM HEPES ). T84 cell monolayers were stimulated with forskolin by incubating with chloride buffer containing 10 μM forskolin for 10 minutes, after which the chloride buffer was removed and replaced with chloride free buffer (2.4 mM Na2HPO4, 0.6 mM NaH2PO4, 1 mM K2SO4, 1 mM MgSO4, 3.4 mM KNO3, 1 mM Ca(NO3)2, 124.6 mM NaNO3, 10 mM glucose and 10 mM HEPES) containing 10 μM forskolin. Repetitive fluorescence measurements were initiated immediately using a fluorescence plate reader (excitation, λ-360 nm; emission, λ-460 nm). Measurements were performed every 30 to 60 seconds for 15 minutes.
Chloride efflux was measured as the percentage increase in fluorescence between baseline and the specified time point. The percentage increase in fluorescence was normalised within experiments to the mean percentage increase in fluorescence in the control group in that experiment. To determine the effects of treatments, the normalised percentage increase in fluorescence was compared between groups. Two group comparisons were made using the Student t test.
as §1

Data set [3] has as its system tropomyosin isoforms. In words: Immunofluorescence localisation of tropomyosin isoforms in T84 cells after treatment. To be noted: for effect on polarised distribution of αf9d staining: T84 cell monolayers, 2 μM oligonucleotide for 24 hours. It counts as cell-based, human. Here is the method:
(§2) Cells were washed in 2% foetal bovine serum (FBS) in phosphate buffered saline (PBS) then fixed with 4% paraformaldehyde. They were permeabilised with 100% methanol, chilled to −80° C., for 20 minutes. Cells were incubated at room temperature with primary and secondary antibodies for 1 hour with washes performed with 2% FBS in PBS 3 times for 10 minutes after each incubation. Coverslips were mounted onto the slides with the anti-fade reagent DABCO.
(§3) Fluorescence was examined with a confocal laser scanning microscope (Leica Microsystems, Wetzler, Germany) using a 63× oil emersion objective. The distribution of fluorophores was measured by scanning at 488 nm for FITC and 568 nm for rhodamine using 8 line averages to eliminate noise. Images were taken in the vertical (xz) and horizontal (xy) plane. Images in the horizontal plane were constructed by overlaying sections taken at 1 μm steps from the apical to the basal region of the cells.
Epithelial cell monolayers were trypsinalised using trypsin/EDTA and centrifuged to form a cell pellet. The cells were then resuspended in medium containing either 1 μM jasplakinolide, 20 μM cytochalasin D or 33 μM nocodazole and seeded into poly-d-lysine and collagen coated glass chamber slides. The developing monolayers were then fixed and stained at 10 minutes after seeding. The effect of nocodazole on microtubules was confirmed by staining with antibodies to β tubulin and comparing with untreated cells. Mature T84 cell monolayers were treated with medium containing 20μM cytochalasin D for 3 hours then fixed and stained. Immunofluorescence analysis was then performed as described above.
The sequence of the antisense and nonsense phosphorothioated oligonucleotides to Tm5a and Tm5b were 5′-[…] (SEQ ID NO:14) and 5′-[…] (SEQ ID NO:15) respectively. These were designed from the exon 1b sequence of the human αTMfast gene (Novy et al., 1993, Cell Motility & the Cytoskeleton 25, 267-281). T84 cell monolayers were grown to confluence on coverslips, in glass chamber slides or 24 well plates. The oligonucleotides were applied at a concentration of 2 μM with Lipofectin Reagent at 10 μg/ml according to the manufacturers instructions. The T84 cell monolayers were then incubated with the oligonucleotide for 24 hours at 37° C. in 5% CO2 after which time they were used for experiments that required oligonucleotide pretreatment.

The test system of data set [4] is microtubules. In words: β tubulin staining to confirm effect on microtubules. The note with it: T84 cells, 33 μM nocodazole. The class given is cell-based, human. Here is the method: Epithelial cell monolayers were trypsinalised using trypsin/EDTA and centrifuged to form a cell pellet. The cells were then resuspended in medium containing either 1 μM jasplakinolide, 20 μM cytochalasin D or 33 μM nocodazole and seeded into poly-d-lysine and collagen coated glass chamber slides. The developing monolayers were then fixed and stained at 10 minutes after seeding. […] Mature T84 cell monolayers were treated with medium containing 20μM cytochalasin D for 3 hours then fixed and stained. Immunofluorescence analysis was then performed as described above.

The subject of data set [5] is Tm5a and Tm5b. Kind of data set: Apical αf9d antibody staining pixel intensity by confocal microscopy in T84 cell monolayers. The note with it: 2 μM oligonucleotide for 24 hours, mean±1 SD. It counts as cell-based, human. Here is the method: as §2, §3
The pixel intensity of Tm antibody staining was measured on images obtained by confocal microscopy. Measurements were made across the apical region and across the central region of monolayers and averaged to obtain the mean pixel intensity for individual monolayers. […]

Data set [6] deals with Tm5a and Tm5b. In words: Western blot (immunoblot) of tropomyosin isoforms in T84 cells. The class given is cell-based, human. The note with it: 24 hours exposure, 2 μM, Western blot band density. Here is the method:
The sequence of the antisense and nonsense phosphorothioated oligonucleotides to Tm5a and Tm5b were 5′-CAC CGC CUC CAG CGA GCT (SEQ ID NO:14) and 5′-GCT CCA GCC ACG CCG ACT (SEQ ID NO:15) respectively. These were designed from the exon 1b sequence of the human αTMfast gene (Novy et al., 1993, Cell Motility & the Cytoskeleton 25, 267-281). T84 cell monolayers were grown to confluence on coverslips, in glass chamber slides or 24 well plates. The oligonucleotides were applied at a concentration of 2 μM with Lipofectin Reagent at 10 μg/ml according to the manufacturers instructions. The T84 cell monolayers were then incubated with the oligonucleotide for 24 hours at 37° C. in 5% CO2 after which time they were used for experiments that required oligonucleotide pretreatment.
Proteins were extracted from T84 cells using the method of Wessel and Flugge (Wessel and Flugge, 1984). Western blot was performed as described (Percival et al., 2000, Cell Motility & the Cytoskeleton 47, 189-208). […] Bound antibody was detected using HRP-conjugated goat anti-rabbit or goat anti-mouse IgG. The bands were detected using Western Lightening™ chemiluminescence reagent and exposure to x-ray film.
Protein expression was measured as the density of protein bands on Western blot autoradiographs using the computer program Molecular Analyst (Version 1.5, Bio Rad Laboratories, Calif., U.S.A.). […]
A general note: In western blotting, separated proteins are transferred to a membrane and probed.

The subject of data set [7] is CFTR. To be noted: cytochalasin D induced disruption of actin filaments; Prat et al., 1995; cited from earlier work.

As for `COC(=O)Nc1nc2ccc(C(=O)c3cccs3)cc2[nH]1` [Nocodazole, nocodazole], the “CFTR surface expression, absorbance at 655 nm normalised to the control group” value is reported as 0.92±0.25 in data set [1] and “failed to elicit any significant change” in data set [1] (listed as nocodazole). The “cumulative chloride efflux at 15 minutes, percentage increase in fluorescence normalised to the control group” value in data set [2] is 1.01±0.43; in data set [2] (listed as nocodazole), “failed to elicit any significant change”. The “distribution of 311 antibody staining 10 minutes post-seeding” value in data set [3] (T84 cells pretreated in suspension before seeding (jasplakinolide 1 μM, nocodazole 33 μM)) is recorded as “enrichment at the apical surface”. For the same compound, in data set [4], the “microtubular structure by β tubulin staining” value is “disrupted normal microtubular structure”.
For the compound “5′-CAC CGC CUC CAG CGA GCT (antisense CACCGCCUCCAGCGAGCT; all phosphorothioate, sugars by position and methylation of C not given here) [Antisense phosphorothioated oligonucleotide to Tm5a and Tm5b, targeted to exon 1b of the TPM1 gene]”, the “apical αf9d antibody staining pixel intensity” value in data set [5] was determined as 53.62±31.62. Also, the “mean reduction in Tm5a and Tm5b levels relative to nonsense treatment” value in data set [6] was determined as 54±13%. Besides, the “increase in CFTR surface expression, antisense compared with nonsense controls” value in data set [1] (T84 cell monolayers, 2 μM for 24 hours) was 50%. Moreover, in data set [1] (T84 cell monolayers), the “CFTR surface expression, absorbance at 655 nm normalised to the nonsense treated group” value is recorded as 1.49±0.78. The “cumulative chloride efflux at 15 minutes, percentage increase in fluorescence normalised to the nonsense group” value in data set [2] was found to be 1.47±0.41. For the same compound, the “effect on polarised distribution of αf9d staining” value in data set [3] is “eliminated the polarised distribution of αf9d staining”.
With `C=C1[C@@H](C)[C@H]2[C@H](Cc3ccccc3)NC(=O)[C@]23[C@H](OC(C)=O)/C=C/[C@@](C)(O)C(=O)[C@@H](C)C/C=C/[C@H]3[C@@H]1O` [cytochalasin D], in data set [3] (mature T84 cell monolayers, 20 μM cytochalasin D for 3 hours), the “effect on polarised distribution of αf9d staining in established monolayers” value is on record as “eliminated the polarised distribution of αf9d staining”. The “effect on chloride currents through CFTR” value in data set [7] is listed as “increase chloride currents through CFTR”.
Regarding “5′-GCT CCA GCC ACG CCG ACT (GCTCCAGCCACGCCGACT; all phosphorothioate, sugars by position and methylation of C not given here) [Nonsense, Scrambled nonsense control oligonucleotide]”, the “apical αf9d antibody staining pixel intensity” value in data set [5] turned out to be 150.86±48.28. Further, in data set [1] (T84 cell monolayers), the “CFTR surface expression, absorbance at 655 nm normalised to the nonsense treated group” value was 1±0.42. The “cumulative chloride efflux at 15 minutes, percentage increase in fluorescence normalised to the nonsense group” value in data set [2] came to 1±0.36. The “effect on polarised distribution of αf9d staining” value in data set [3] was “essentially no effect on the distribution of staining”.
